Measurements reported in the NIST ThermoML archive (doi:10.1021/je050175u).
± gives the expanded uncertainty stated by the source.

Assay: excess molar enthalpy (molar enthalpy of mixing); xn = mol fraction of the nth substance listed
Settings: Liquid, Flow calorimetry
[1] = 298.15 K, 10000 kPa, x1 = 0.149
[2] = 298.15 K, 10000 kPa, x1 = 0.599
[3] = 298.15 K, 10000 kPa, x1 = 0.899
[4] = 298.15 K, 10000 kPa, x1 = 0.951

COC(C)=O [methyl ethanoate] + CCCCO
excess molar enthalpy (298.15 K, 5000 kPa, x1 = 0.05): 0.325 ± 0.0071 kJ/mol
excess molar enthalpy (298.15 K, 5000 kPa, x1 = 0.1): 0.607 ± 0.0088 kJ/mol
excess molar enthalpy (298.15 K, 5000 kPa, x1 = 0.149): 0.84 ± 0.011 kJ/mol
excess molar enthalpy (298.15 K, 5000 kPa, x1 = 0.199): 1.04 ± 0.012 kJ/mol
excess molar enthalpy (298.15 K, 5000 kPa, x1 = 0.249): 1.2 ± 0.014 kJ/mol
excess molar enthalpy (298.15 K, 5000 kPa, x1 = 0.3): 1.34 ± 0.015 kJ/mol
excess molar enthalpy (298.15 K, 5000 kPa, x1 = 0.349): 1.44 ± 0.016 kJ/mol
excess molar enthalpy (298.15 K, 5000 kPa, x1 = 0.399): 1.5 ± 0.016 kJ/mol
excess molar enthalpy (298.15 K, 5000 kPa, x1 = 0.45): 1.55 ± 0.017 kJ/mol
excess molar enthalpy (298.15 K, 5000 kPa, x1 = 0.501): 1.56 ± 0.017 kJ/mol
excess molar enthalpy (298.15 K, 5000 kPa, x1 = 0.55): 1.54 ± 0.017 kJ/mol
excess molar enthalpy (298.15 K, 5000 kPa, x1 = 0.6): 1.5 ± 0.016 kJ/mol
excess molar enthalpy (298.15 K, 5000 kPa, x1 = 0.651): 1.43 ± 0.015 kJ/mol
excess molar enthalpy (298.15 K, 5000 kPa, x1 = 0.699): 1.32 ± 0.014 kJ/mol
excess molar enthalpy (298.15 K, 5000 kPa, x1 = 0.751): 1.19 ± 0.013 kJ/mol
excess molar enthalpy (298.15 K, 5000 kPa, x1 = 0.801): 1.02 ± 0.011 kJ/mol
excess molar enthalpy (298.15 K, 5000 kPa, x1 = 0.851): 0.813 ± 0.0091 kJ/mol
excess molar enthalpy (298.15 K, 5000 kPa, x1 = 0.899): 0.589 ± 0.0069 kJ/mol
excess molar enthalpy (298.15 K, 5000 kPa, x1 = 0.951): 0.304 ± 0.004 kJ/mol
excess molar enthalpy (298.15 K, 10000 kPa, x1 = 0.05): 0.322 ± 0.007 kJ/mol
excess molar enthalpy (298.15 K, 10000 kPa, x1 = 0.1): 0.604 ± 0.0087 kJ/mol
excess molar enthalpy [1]: 0.835 ± 0.01 kJ/mol
excess molar enthalpy (298.15 K, 10000 kPa, x1 = 0.201): 1.04 ± 0.012 kJ/mol
excess molar enthalpy (298.15 K, 10000 kPa, x1 = 0.251): 1.21 ± 0.013 kJ/mol
excess molar enthalpy (298.15 K, 10000 kPa, x1 = 0.3): 1.33 ± 0.015 kJ/mol
excess molar enthalpy (298.15 K, 10000 kPa, x1 = 0.351): 1.43 ± 0.015 kJ/mol
excess molar enthalpy (298.15 K, 10000 kPa, x1 = 0.401): 1.5 ± 0.016 kJ/mol
excess molar enthalpy (298.15 K, 10000 kPa, x1 = 0.449): 1.54 ± 0.016 kJ/mol
excess molar enthalpy (298.15 K, 10000 kPa, x1 = 0.5): 1.56 ± 0.017 kJ/mol
excess molar enthalpy (298.15 K, 10000 kPa, x1 = 0.549): 1.54 ± 0.016 kJ/mol
excess molar enthalpy [2]: 1.5 ± 0.016 kJ/mol
excess molar enthalpy (298.15 K, 10000 kPa, x1 = 0.65): 1.42 ± 0.015 kJ/mol
excess molar enthalpy (298.15 K, 10000 kPa, x1 = 0.701): 1.32 ± 0.014 kJ/mol
excess molar enthalpy (298.15 K, 10000 kPa, x1 = 0.751): 1.19 ± 0.013 kJ/mol
excess molar enthalpy (298.15 K, 10000 kPa, x1 = 0.8): 1.02 ± 0.012 kJ/mol
excess molar enthalpy (298.15 K, 10000 kPa, x1 = 0.851): 0.818 ± 0.01 kJ/mol
excess molar enthalpy [3]: 0.591 ± 0.0086 kJ/mol
excess molar enthalpy [4]: 0.304 ± 0.0068 kJ/mol
excess molar enthalpy (308.15 K, 10000 kPa, x1 = 0.047): 0.306 ± 0.0073 kJ/mol
excess molar enthalpy (308.15 K, 10000 kPa, x1 = 0.098): 0.616 ± 0.0092 kJ/mol
excess molar enthalpy (308.15 K, 10000 kPa, x1 = 0.146): 0.872 ± 0.011 kJ/mol
excess molar enthalpy (308.15 K, 10000 kPa, x1 = 0.193): 1.08 ± 0.012 kJ/mol
excess molar enthalpy (308.15 K, 10000 kPa, x1 = 0.243): 1.26 ± 0.014 kJ/mol
excess molar enthalpy (308.15 K, 10000 kPa, x1 = 0.291): 1.4 ± 0.015 kJ/mol
excess molar enthalpy (308.15 K, 10000 kPa, x1 = 0.343): 1.52 ± 0.016 kJ/mol
excess molar enthalpy (308.15 K, 10000 kPa, x1 = 0.39): 1.6 ± 0.017 kJ/mol
excess molar enthalpy (308.15 K, 10000 kPa, x1 = 0.44): 1.65 ± 0.018 kJ/mol
excess molar enthalpy (308.15 K, 10000 kPa, x1 = 0.492): 1.67 ± 0.018 kJ/mol
excess molar enthalpy (308.15 K, 10000 kPa, x1 = 0.541): 1.66 ± 0.018 kJ/mol
excess molar enthalpy (308.15 K, 10000 kPa, x1 = 0.591): 1.61 ± 0.017 kJ/mol
excess molar enthalpy (308.15 K, 10000 kPa, x1 = 0.641): 1.54 ± 0.017 kJ/mol
excess molar enthalpy (308.15 K, 10000 kPa, x1 = 0.692): 1.44 ± 0.016 kJ/mol
excess molar enthalpy (308.15 K, 10000 kPa, x1 = 0.744): 1.29 ± 0.014 kJ/mol
excess molar enthalpy (308.15 K, 10000 kPa, x1 = 0.794): 1.12 ± 0.013 kJ/mol
excess molar enthalpy (308.15 K, 10000 kPa, x1 = 0.896): 0.66 ± 0.0091 kJ/mol
excess molar enthalpy (308.15 K, 10000 kPa, x1 = 0.947): 0.353 ± 0.0077 kJ/mol

COC(C)=O [methyl ethanoate] + CCCO
excess molar enthalpy (298.15 K, 5000 kPa, x1 = 0.051): 0.313 ± 0.0072 kJ/mol
excess molar enthalpy (298.15 K, 5000 kPa, x1 = 0.099): 0.597 ± 0.0088 kJ/mol
excess molar enthalpy (298.15 K, 5000 kPa, x1 = 0.149): 0.841 ± 0.011 kJ/mol
excess molar enthalpy (298.15 K, 5000 kPa, x1 = 0.199): 1.04 ± 0.012 kJ/mol
excess molar enthalpy (298.15 K, 5000 kPa, x1 = 0.251): 1.2 ± 0.014 kJ/mol
excess molar enthalpy (298.15 K, 5000 kPa, x1 = 0.3): 1.32 ± 0.015 kJ/mol
excess molar enthalpy (298.15 K, 5000 kPa, x1 = 0.349): 1.41 ± 0.015 kJ/mol
excess molar enthalpy (298.15 K, 5000 kPa, x1 = 0.4): 1.48 ± 0.016 kJ/mol
excess molar enthalpy (298.15 K, 5000 kPa, x1 = 0.451): 1.52 ± 0.016 kJ/mol
excess molar enthalpy (298.15 K, 5000 kPa, x1 = 0.501): 1.52 ± 0.016 kJ/mol
excess molar enthalpy (298.15 K, 5000 kPa, x1 = 0.551): 1.5 ± 0.016 kJ/mol
excess molar enthalpy (298.15 K, 5000 kPa, x1 = 0.6): 1.45 ± 0.016 kJ/mol
excess molar enthalpy (298.15 K, 5000 kPa, x1 = 0.65): 1.38 ± 0.015 kJ/mol
excess molar enthalpy (298.15 K, 5000 kPa, x1 = 0.701): 1.28 ± 0.014 kJ/mol
excess molar enthalpy (298.15 K, 5000 kPa, x1 = 0.749): 1.14 ± 0.013 kJ/mol
excess molar enthalpy (298.15 K, 5000 kPa, x1 = 0.8): 0.987 ± 0.011 kJ/mol
excess molar enthalpy (298.15 K, 5000 kPa, x1 = 0.85): 0.797 ± 0.009 kJ/mol
excess molar enthalpy (298.15 K, 5000 kPa, x1 = 0.899): 0.571 ± 0.0067 kJ/mol
excess molar enthalpy (298.15 K, 5000 kPa, x1 = 0.951): 0.298 ± 0.004 kJ/mol
excess molar enthalpy (298.15 K, 10000 kPa, x1 = 0.051): 0.34 ± 0.0071 kJ/mol
excess molar enthalpy (298.15 K, 10000 kPa, x1 = 0.099): 0.608 ± 0.0088 kJ/mol
excess molar enthalpy [1]: 0.844 ± 0.01 kJ/mol
excess molar enthalpy (298.15 K, 10000 kPa, x1 = 0.199): 1.04 ± 0.012 kJ/mol
excess molar enthalpy (298.15 K, 10000 kPa, x1 = 0.25): 1.2 ± 0.013 kJ/mol
excess molar enthalpy (298.15 K, 10000 kPa, x1 = 0.3): 1.32 ± 0.014 kJ/mol
excess molar enthalpy (298.15 K, 10000 kPa, x1 = 0.349): 1.41 ± 0.015 kJ/mol
excess molar enthalpy (298.15 K, 10000 kPa, x1 = 0.399): 1.47 ± 0.016 kJ/mol
excess molar enthalpy (298.15 K, 10000 kPa, x1 = 0.45): 1.51 ± 0.016 kJ/mol
excess molar enthalpy (298.15 K, 10000 kPa, x1 = 0.5): 1.52 ± 0.016 kJ/mol
excess molar enthalpy (298.15 K, 10000 kPa, x1 = 0.55): 1.5 ± 0.016 kJ/mol
excess molar enthalpy [2]: 1.45 ± 0.015 kJ/mol
excess molar enthalpy (298.15 K, 10000 kPa, x1 = 0.649): 1.38 ± 0.015 kJ/mol
excess molar enthalpy (298.15 K, 10000 kPa, x1 = 0.7): 1.27 ± 0.014 kJ/mol
excess molar enthalpy (298.15 K, 10000 kPa, x1 = 0.749): 1.15 ± 0.013 kJ/mol
excess molar enthalpy (298.15 K, 10000 kPa, x1 = 0.799): 0.99 ± 0.011 kJ/mol
excess molar enthalpy (298.15 K, 10000 kPa, x1 = 0.849): 0.79 ± 0.0099 kJ/mol
excess molar enthalpy [3]: 0.565 ± 0.0083 kJ/mol
excess molar enthalpy [4]: 0.286 ± 0.0066 kJ/mol
excess molar enthalpy (333.15 K, 10000 kPa, x1 = 0.051): 0.402 ± 0.0086 kJ/mol
excess molar enthalpy (333.15 K, 10000 kPa, x1 = 0.099): 0.704 ± 0.0099 kJ/mol
excess molar enthalpy (333.15 K, 10000 kPa, x1 = 0.15): 0.972 ± 0.012 kJ/mol
excess molar enthalpy (333.15 K, 10000 kPa, x1 = 0.2): 1.2 ± 0.014 kJ/mol
excess molar enthalpy (333.15 K, 10000 kPa, x1 = 0.25): 1.38 ± 0.015 kJ/mol
excess molar enthalpy (333.15 K, 10000 kPa, x1 = 0.3): 1.52 ± 0.016 kJ/mol
excess molar enthalpy (333.15 K, 10000 kPa, x1 = 0.35): 1.63 ± 0.017 kJ/mol
excess molar enthalpy (333.15 K, 10000 kPa, x1 = 0.399): 1.71 ± 0.018 kJ/mol
excess molar enthalpy (333.15 K, 10000 kPa, x1 = 0.448): 1.75 ± 0.018 kJ/mol
excess molar enthalpy (333.15 K, 10000 kPa, x1 = 0.5): 1.77 ± 0.019 kJ/mol
excess molar enthalpy (333.15 K, 10000 kPa, x1 = 0.548): 1.75 ± 0.018 kJ/mol
excess molar enthalpy (333.15 K, 10000 kPa, x1 = 0.599): 1.7 ± 0.018 kJ/mol
excess molar enthalpy (333.15 K, 10000 kPa, x1 = 0.65): 1.61 ± 0.017 kJ/mol
excess molar enthalpy (333.15 K, 10000 kPa, x1 = 0.7): 1.48 ± 0.016 kJ/mol
excess molar enthalpy (333.15 K, 10000 kPa, x1 = 0.751): 1.32 ± 0.015 kJ/mol
excess molar enthalpy (333.15 K, 10000 kPa, x1 = 0.801): 1.13 ± 0.013 kJ/mol
excess molar enthalpy (333.15 K, 10000 kPa, x1 = 0.85): 0.898 ± 0.011 kJ/mol
excess molar enthalpy (333.15 K, 10000 kPa, x1 = 0.899): 0.627 ± 0.0094 kJ/mol
excess molar enthalpy (333.15 K, 10000 kPa, x1 = 0.949): 0.314 ± 0.0076 kJ/mol
